Results as given in patent US20190083420A1, “METHODS OF USING (2R, 6R)-HYDROXYN[…] (2S, 6S)-HYDROXYN[…] THE TREATMENT OF DEPRESSION, ANXIETY, ANHEDONIA, FATIGUE, SUICIDAL IDEATION, AND POST TRAUMATIC STRESS DISORDERS” (The Uinited States of America, as represented by the …, priority 2016, published 2019).
“Also recorded” adds a separate entry of the source.

Legend:
[1] = test system: eEF2; test: Western blot of synaptoneurosomes, eEF2 phosphorylation; format: in vivo, mice; conditions: for phosphorylation of eEF2: hippocampus, 1 hour and 24 hours post-injection, 10 mg/kg; for eEF2 / phosphorylated eEF2: prefrontal cortex
Experimental: (§1) To purify synaptoneurosomes, mouse prefrontal cortex or hippocampus were dissected and homogenized in Syn-PER Reagent (ThermoFisher Scientific, Waltham, Mass., USA; Cat #87793) with 1× protease and phosphatase inhibitor cocktail (ThermoFisher Scientific, Waltham, Mass., USA; Cat #78440). The homogenate was centrifuged for 10 min at 1,200×g at 4° C. The supernatant was centrifuged at 15,000×g for 20 min. After centrifugation, the supernatant the pellet (synaptosomal fraction) was re-suspended and sonicated in N-PER Neuronal Protein Extraction Reagent (ThermoFisher Scientific, Waltham, Mass., USA; Cat #87792). For total homogenous tissue lysates, mouse prefrontal cortex or hippocampus were homogenized and sonicated in N-PER Neuronal Protein Extraction Reagent with 1× protease & phosphatase inhibitor cocktail) Protein concentration was determined via the BCA protein assay kit (ThermoFisher Scientific, Waltham, Mass., USA; Cat #23227).
(§2) For western blotting, equal amount of proteins (10-40 μg as optimal for each antibody) for each sample were loaded into NuPage 4-12% Bis-Tris gel for electrophoresis. Nitrocellulose membranes with transferred proteins were blocked with 5% milk in TBST (TBS+0.1% Tween-20) for 1 hour and kept with primary antibodies overnight at 4° C. The following primary antibodies were used: phospho-eEF2 (Cell Signaling Technology, Danvers, Mass., USA; Cat #2331), total eEF2 (Cell Signaling Technology, Danvers, Mass., USA; Cat #2332), phospho-mTOR (Cell Signaling Technology, Danvers, Mass., USA; Cat #2971), total mTOR (Cell Signaling Technology, Danvers, Mass., USA; Cat #2983), GluR1 (Cell Signaling Technology, Danvers, Mass., USA; […]), GluR2 (Cell Signaling Technology, Danvers, Mass., USA; Cat #13607), BDNF (Santa Cruz Biotechnology, Dallas, Tex., USA; Cat # sc-546), and GAPDH (Abcam, Cambridge, Mass., USA; Cat # ab8245). The next day, blots were washed three times in PBST and incubated with horseradish peroxidase conjugated anti-mouse or anti-rabbit secondary antibody (1:5000 to 1:10000) for 1 hour. After final three washes with TBST, bands were detected using enhanced chemiluminescence (ECL) with the Syngene Imaging System (G:Box ChemiXX9). After imaging, the blots then were incubated in the stripping buffer (ThermoFisher Scientific, Waltham, Mass., USA; Cat #46430) for 10-15 min at room temperature followed by three time washes with TBST. The stripped blots were washed in blocking solution for 1 hour and incubated with the primary antibody directed against total levels of the respective protein or GAPDH for loading control. Densitometric analysis of phospho- and total immunoreactive bands for each protein was conducted using Syngene's GenTools software Immunoreactivity was normalized to the saline treated control group for each protein.

[2] = test system: male CD-1 mice; test: Forced-swim test (FST); format: in vivo; conditions: for antidepressant effect in the FST (immobility time): i.p.
From the text: Male CD-1 mice (8-10 weeks old, Charles River Laboratories, Mass., USA) were housed in groups of four-five per cage with a constant 12-hour light/dark cycle (lights on/off at 07:00/19:00). Food and water were available ad libitum. Mice acclimatized to the new environment for seven days prior to the start of the experiments. For the whole-cell NMDA current electrophysiological recordings, male Sprague-Dawley rats (housed three per cage; Charles River, Wilmington, Mass.) were used. EPSC recording were done from rats at postnatal day 24-25. All experimental procedures were approved by the University of Maryland, Baltimore Animal Care and Use Committee and were conducted in full accordance with the National Institutes of Health Guide for the Care and Use of Laboratory Animals.
Mice were tested in the FST 1 hour and/or 24 hours post-injection. During the FST, mice were subjected to a 6-min swim session in clear Plexiglass cylinders (30 cm height×20 cm diameter) filled with 15 cm of water (23±1° C.). The FST was performed in normal light conditions (800 Lux). Sessions were recorded using a digital video-camera. Immobility time, defined as passive floating with no additional activity other than that necessary to keep the animal's head above water, was scored for the last 4 min of the 6-min test by a trained observer blind to the treatment.
All drugs were dissolved in 0.9% saline, and administered intraperitoneally (i.p.) in a volume of 7.5 ml/kg of body mass. Corticosterone (4-pregnen-11β, 21-diol-3, 20-dione 21-hemisuccinate; Steraloids, Newport, R.I., USA) was dissolved in tap water. For the electrophysiology recordings, test drugs were diluted in artificial cerebrospinal fluid (AC SF).

[3] = test system: GluR1 and GluR2; test: Western blot of synaptoneurosomes, GluR1 and GluR2 levels; format: in vivo, mice
Experimental: as §1, §2

[4] = test system: mice; test: Open field test (locomotor activity); format: in vivo; conditions: 1 hour after i.p. drug
Experimental: Mice were placed into individual open-field arenas (50 cm length×50 cm width×38 cm height; San Diego Instruments, San Diego, Calif., USA) for a 60-min habituation period. Mice were then injected with the respective drug and assessed for locomotor activity for another 60 min. Distance travelled was analyzed using TopScan v2.0 (CleverSys, Inc, Reston, Va., USA).

[5] = test system: mice; test: Pre-pulse inhibition of acoustic startle; format: in vivo
From the text: Mice were individually tested in acoustic startle boxes (SR-LAB, San Diego Instruments). Following drug administration, mice were placed in the startle chamber for a 30-min habituation period. The experiment started with a further 5-min adaptation period during which the mice were exposed to a constant background noise (67 dB), followed by five initial startle stimuli (120 dB, 40 msec duration each). Subsequently, animals were exposed to five different trial types: pulse alone trials (120 dB, 40 msec duration), three pre-pulse trials of 76, 81 and 86 dB of white noise bursts (20 msec duration) preceding a 120 dB pulse by 100 msec, and background (67 dB) no-stimuli trials. Each of these trials was randomly presented five times. Ketamine's dose selection (30 mg/kg) was based on a dose-response study we performed in a previous study. The percentage pre-pulse inhibition (% PPI) was calculated using the following formula: [(magnitude on pulse alone trial—magnitude on pre-pulse+pulse trial)/magnitude on pulse alone trial]×100.

[6] = 1- and 24-hours post-injection, times not separated
[7] = 24 hours post-injection (sustained)

| SMILES | phosphorylation of eEF2 ([1]; listed as (2R,6R)-hydroxynorketamine) | eEF2 / phosphorylated eEF2 [1] | antidepressant effect in the FST (immobility time) [2, 6] | antidepressant effect in the FST (immobility time) [2, 7] | GluR1 and GluR2 levels in hippocampal synaptoneurosomes ([3]; 1 hour post-treatment) | GluR1 and GluR2 levels in hippocampal synaptoneurosomes ([3]; 24 hours post-treatment) | GluR1/GluR2 levels in prefrontal cortex synaptoneurosomes [3] | locomotor activity in the open-field test [4] | pre-pulse inhibition (sensorimotor gating) ([5]; (2R,6R)-HNK up to 375 mg/kg) | phosphorylation of eEF2 [1] | phosphorylation of eEF2 ([1]; listed as (R,S)-ketamine) | eEF2 / phosphorylated eEF2 ([1]; listed as (R,S)-KET) | antidepressant effect in the FST (immobility time) ([2]; 1 hour post-injection (acute)) | antidepressant potency in the FST, female versus male mice ([2]; female mice compared to males) | GluR1/GluR2 levels in prefrontal cortex synaptoneurosomes ([3]; listed as (R,S)-KET) | locomotor activity in the open-field test ([4]; listed as (R,S)-KET) | locomotor activity in the open-field test ([4]; listed as (R,S)-ketamine) | startle amplitude in the pre-pulse inhibition task ([5]; mouse, in vivo) |
| --- | --- | --- | --- | --- | --- | --- | --- | --- | --- | --- | --- | --- | --- | --- | --- | --- | --- | --- |
| N[C@@]1(c2ccccc2Cl)CCC[C@@H](O)C1=O [(2R,6R)-HNK, (2R,6R)-2-amino-2-(2-chlorophenyl)-6-hydroxycyclohexanone] | decrease phosphorylation of eEF2 | did not alter | greater potency and longer-lasting antidepressant-like effects; also recorded: dose-dependent antidepressant-like effects; also recorded: dose-dependent antidepressant action | more potent antidepressant effects | neither ketamine nor (2R,6R)-HNK administration altered | both increased GluR1 and GluR2 levels | did not alter synaptoneurosome levels of GluR1/GluR2 | did not induce any significant change in locomotion; also recorded: did not induce any stimulant-like hyperlocomotion | did not induce 4e, pre-pulse inhibition deficits; also recorded: did not affect sensorimotor gating; also recorded: did not affect pre-pulse inhibition | – | – | – | – | – | – | – | – | – |
| CNC1(c2ccccc2Cl)CCCCC1=O (racemic) [ketamine, (R,S)-ketamine, reference compound] | – | – | acute and long-lasting dose-dependent antidepressant effects | showed sustained effects following 24 hours | neither ketamine nor (2R,6R)-HNK administration altered | both increased GluR1 and GluR2 levels | – | not associated with sex differences in ketamine-induced hyperlocomotion | – | induced a decrease in eEF2 phosphorylation | decrease phosphorylation of eEF2 | did not alter | antidepressant responses of both ketamine and MK-801 observed acutely | greater antidepressant potency of ketamine in female mice | did not alter synaptoneurosome levels of GluR1/GluR2 | induced hyper-locomotor responses equally in both male and female mice | equally potent in inducing a hyper-locomotor response | not affected |
